According to publication PMC9694130, “Design, Preparation, Characterization and Evaluation of Five Cocrystal Hydrates of Fluconazole with Hydroxybenzoic Acids” (Pharmaceutics, 2022):

Legend:
[1] = cited from earlier work; for aqueous solubility of CCFs in water: water at 25 °C, no reference given
[2] = Accelerated stability test (PXRD); format: physicochemical; details: for stability under high temperature: high temperature (60 ± 1 °C), phase changes reported after 5 days
Method: Approximately 50 mg of powdered samples were stored under the three test conditions and measured at regular time intervals (0, 5, and 10 days) by PXRD.

[3] = Apparent powder dissolution in ultrapure water; format: physicochemical; details: 37 °C, 100 rpm, rank among the three cocrystal hydrates
Method: Sampling was conducted by withdrawing 1 mL aliquot of the sample at time intervals of 5, 10, 15, 20, 30, 45, 60, 90, and 120 min from the vessel and filtered through a 0.45 μm syringe tip filter, and the aliquots were assayed on a high-performance liquid chromatography (HPLC) system. The measurements of the powder dissolution rate were repeated in triplicate.
(§1) The HPLC (Agilent Technologies, Santa Clara, USA) system was equipped with a UV detector and an Agilent Eclipse XDB−C18 (250 mm × 4.6 mm, 5 μm) column with the temperature set to 30 °C. The mobile phase consisted of acetonitrile and water (25:75, v:v) with a flow rate of 1.0 mL min^−1. The injection volume was 10 μL and the detection wavelength was set to 261 nm.

[4] = Intrinsic dissolution rate (IDR) in ultrapure water; format: physicochemical; details: 37 °C; for order of intrinsic dissolution rate: ultrapure water, 100 rpm, rank among the three cocrystal hydrates
Method: The resulting disk has a flat surface of 0.5 cm^2. Then, the disk was dipped into a vessel containing 900 mL ultrapure water at 37 ± 0.2 °C, with the paddle rotating at 100 rpm. At time intervals (60, 75, 90, 120, 150, 180, 210, 240, 270, and 300 min), 1 mL of the dissolution medium was withdrawn manually. After filtration through a 0.45 μm syringe tip filter, the aliquots were assayed on an HPLC system. Each experiment was repeated in triplicate.
as §1

| SMILES | aqueous solubility of CCFs in water [1] [mg/mL] | stability under high temperature ([2]; PXRD at 0, 5 and 10 days) | order of apparent dissolution rate [3] | order of intrinsic dissolution rate [4] | also measured |
| --- | --- | --- | --- | --- | --- |
| O=C(O)c1ccc(O)cc1O [24DHB, 2,4-dihydroxybenzoic acid] | 8 | – | – | – | – |
| O=C(O)c1ccc(O)c(O)c1 [34DHB, 3,4-dihydroxybenzoic acid] | 29 | – | – | – | – |
| O=C(O)c1cc(O)cc(O)c1 [35DHB, 3,5-dihydroxybenzoic acid] | 84 | – | – | – | – |
| O.OC(Cn1cncn1)(Cn1cncn1)c1ccc(F)cc1F [FLZ monohydrate, reference compound] | – | converted to FLZ form II | – | – | – |
| OC(Cn1cncn1)(Cn1cncn1)c1ccc(F)cc1F [FLZ, 2-(2,4-difluorophenyl)-1,3-di(1H-1,2,4-triazol-1-yl)propan-2-ol, reference compound] | – | – | – | – | aqueous solubility ([1]; FLZ form II): 2 to 8 mg/mL |
| O.O.O=C(O)c1ccc(O)cc1O.OC(Cn1cncn1)(Cn1cncn1)c1ccc(F)cc1F.OC(Cn1cncn1)(Cn1cncn1)c1ccc(F)cc1F [FLZ−24DHB−H2O (1:0.5:1)] | – | converted to the physical mixture of amorphous and crystalline phases | FLZ−35DHB−H2O (1:1:1) > FLZ−34DHB−H2O (1:1:1) > FLZ−24DHB−H2O (1:0.5:1) | FLZ−35DHB−H2O (1:1:1) > FLZ−34DHB−H2O (1:1:1) > FLZ−24DHB−H2O (1:0.5:1) | – |
| O.O.O=C(O)c1ccc(O)c(O)c1.OC(Cn1cncn1)(Cn1cncn1)c1ccc(F)cc1F.OC(Cn1cncn1)(Cn1cncn1)c1ccc(F)cc1F [FLZ−34DHB−H2O (1:0.5:1)] | – | converted to the physical mixture of amorphous and crystalline phases | – | – | – |
| O.O=C(O)c1ccc(O)c(O)c1.OC(Cn1cncn1)(Cn1cncn1)c1ccc(F)cc1F [FLZ−34DHB−H2O (1:1:1)] | – | stable | FLZ−35DHB−H2O (1:1:1) > FLZ−34DHB−H2O (1:1:1) > FLZ−24DHB−H2O (1:0.5:1) | FLZ−35DHB−H2O (1:1:1) > FLZ−34DHB−H2O (1:1:1) > FLZ−24DHB−H2O (1:0.5:1) | hygroscopicity relative to FLZ ([2]; compared with commercialized FLZ form II): significantly reduces hygroscopicity; stability under high humidity ([2]; high humidity (90 ± 5%, 25 °C), PXRD at 0, 5 and 10 days): stable; stability under illumination ([2]; illumination (4500 ± 500 lx, 25 °C), PXRD at 0, 5 and 10 days): stable |
| O.O=C(O)c1cc(O)cc(O)c1.OC(Cn1cncn1)(Cn1cncn1)c1ccc(F)cc1F [FLZ−35DHB−H2O (1:1:1)] | – | forming an anhydrous form | FLZ−35DHB−H2O (1:1:1) > FLZ−34DHB−H2O (1:1:1) > FLZ−24DHB−H2O (1:0.5:1) | FLZ−35DHB−H2O (1:1:1) > FLZ−34DHB−H2O (1:1:1) > FLZ−24DHB−H2O (1:0.5:1) | IDR compared with FLZ form II ([4]; ultrapure water 900 mL, paddle 100 rpm, disk 0.5 cm^2): higher IDR |
